We go through 20 compounds from patent US20090264426A1, “Bicyclic aromatic substituted pyridone derivative” (priority 2005, published 2009).

Broadly, the IC50 is the concentration needed to halve the response being measured. Higher therefore signals a need for much substance.

The assay deals with T1, human MCH-1R (Homo sapiens, UniProt Q99705).
T1 construct: expressed in transfected cells; host or cells: CHO-K1
Kind of assay: MCH binding inhibition test. The conditions noted are these: 50% inhibition of specific [125I]MCH (50 pM) binding; membranes of MCH-1R expressing CHO-K1 cells; 25° C., 1 hour, pH 7.4. On the procedure:
A human MCH-1R encoding cDNA sequence [FEBS Letters, Vol. 398, 253 (1996); Biochimica et Biophisica Acta, Vol. 1401, 216 (1998)] was cloned to a plasmid vector pEF/myc/cyto (Invitrogen Corporation). The obtained expression vector was transfected to host cells CHO-K1 (American Type Culture Collection) using Lipofectamine Plus Reagent (Life Technology Inc.) to provide MCH-1R expression cells.
Membrane samples prepared from the MCH-1R expression cells were incubated with each test compound and 50 pM of [^125I]MCH (NEN Co.), in an assay buffer (50 mM Tris buffer comprising 10 mM magnesium chloride, 2 mM ethylenediamine tetraacetate, 0.01% bacitracin and 0.2% bovine serum albumin; pH 7.4) at 25° C. for an hour, followed by filtration through a glass filter GF/C (Wattman Co.). After washing the glass filter with 50 mM Tris buffer (pH 7.4) comprising 10 mM magnesium chloride, 2 mM ethylenediamine tetraacetate and 0.04% Tween-20, the radioactive activity on the glass filter was measured. The non-specific binding was measured in the presence of 1 μM human MCH and 50% inhibition concentration (IC50 value) of each test compound to the specific [^125I]MCH binding was determined.

T1 sequence (Q99705 whole entry): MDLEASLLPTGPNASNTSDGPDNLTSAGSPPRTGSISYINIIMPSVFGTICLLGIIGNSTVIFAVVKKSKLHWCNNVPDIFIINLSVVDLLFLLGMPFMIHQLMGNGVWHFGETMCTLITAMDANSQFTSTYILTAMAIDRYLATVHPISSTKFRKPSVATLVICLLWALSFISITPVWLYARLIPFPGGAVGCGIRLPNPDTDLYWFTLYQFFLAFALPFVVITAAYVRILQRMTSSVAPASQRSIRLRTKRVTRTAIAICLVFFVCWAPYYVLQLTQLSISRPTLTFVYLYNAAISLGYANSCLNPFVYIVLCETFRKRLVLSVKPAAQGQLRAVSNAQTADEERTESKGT

`CCCNCCc1ccc2cc(-n3ccc(OCc4ccccc4)cc3=O)ccc2n1` [Example 76, 4-(Benzyloxy)-1-{2-[2-(propylamino)ethyl]quinolin-6-yl}pyridin-2(1H)-one] gave a concentration for half-maximal inhibition (IC50) of 2.9 nM.
As for `O=c1cc(OCc2ccc(Cl)cn2)ccn1-c1ccc2nc(CN3CCC3)ccc2c1` [Example 30, 1-[2-(Azetidin-1-ylmethyl)quinolin-6-yl]-4-[(5-chloropyridin-2-yl)methoxy]pyridin-2(1H)-one], the IC50 was 5.9 nM.
As for `O=c1cc(OCc2ccccc2)ccn1-c1ccc2cc(CN3CCC3)ccc2n1` [Example 28, 1-[6-(Azetidin-1-ylmethyl)quinolin-2-yl]-4-(benzyloxy)pyridin-2(1H)-one], the IC50 is 7.6 nM.
The compound `CNCc1ccc2cc(-n3ccc(OCc4ccc(Cl)cc4)cc3=O)ccc2n1` [Example 35, 4-[(4-Chlorobenzyl)oxy]-1-{2-[(methylamino)methyl]quinolin-6-yl}pyridin-2(1H)-one] registered an IC50 of 2.2 nM. This IC50 is about 3.5-fold lower than that of the compound before.
On to `Cn1c(CCCN2CCCC2)nc2ccc(-n3ccc(OCc4ccc(Cl)cc4)cc3=O)cc21` [Example 65, 4-[(4-Chlorobenzyl)oxy]-1-[1-methyl-2-(3-pyrrolidin-1-ylpropyl)-1H-benzimidazol-6-yl]pyridin-2(1H)-one], for which the IC50 worked out at 5.1 nM.
`O=c1cc(OCc2ccc(F)cc2)ccn1-c1ccc2oc(CN3CCCCCC3)cc2c1` [Example 89, 1-[2-(Azepan-1-ylmethyl)-1-benzofuran-5-yl]-4-[(4-fluorobenzyl)oxy]pyridin-2(1H)-one] returned an IC50 of 19 nM.
`O=c1cc(OCc2ccc(Cl)cn2)ccn1-c1ccc2nc(OCCN3CCCC3)ccc2c1` [Example 8, 4-[(5-Chloropyridin-2-yl)methoxy]-1-[2-(2-pyrrolidin-1-ylethoxy)quinolin-6-yl]pyridin-2(1H)-one] had an IC50 of 6.4 nM. This IC50 is about 3-fold lower than that of the compound before.
In turn, `CCNCc1ccc2cc(-n3ccc(OCc4ccc(F)cc4)cc3=O)ccc2n1` [Example 23, 1-{2-[(Ethylamino)methyl]quinolin-6-yl}-4-[(4-fluorobenzyl)oxy]pyridin-2(1H)-one] showed an IC50 of 6.2 nM.
`CCCNCc1ccc2cc(-n3ccc(OCc4ccc(Cl)cn4)cc3=O)ccc2n1` [Example 40, 4-[(5-Chloropyridin-2-yl)methoxy]-1-{2-[(propylamino)methyl]quinolin-6-yl}pyridin-2(1H)-one] displayed a concentration for half-maximal inhibition (IC50) of 5.2 nM.
In the case of `O=c1cc(OCc2ccc(F)cc2)ccn1-c1ccc2cc(CN3CCC3)ncc2c1` [Example 99, 1-[3-(Azetidin-1-ylmethyl)isoquinolin-7-yl]-4-[(4-fluorobenzyl)oxy]pyridin-2(1H)-one] it was 6 nM; in that of `O=c1cc(/C=C/c2ccc(Cl)cn2)ccn1-c1ccc2nc(OCCN3CCCC3)cnc2c1` [Example 57, 4-[(E)-2-(5-chloropyridin-2-yl)vinyl]-1-[2-(2-pyrrolidin-1-ylethoxy)quinoxalin-6-yl]pyridin-2(1H)-one], 10.1 nM; in that of `O=c1cc(OCc2ccc(F)cc2)ccn1-c1ccc2cc(CN3CCC3)cnc2c1` [Example 98, 1-[3-(Azetidin-1-ylmethyl)quinolin-7-yl]-4-[(4-fluorobenzyl)oxy]pyridin-2(1H)-one], 9.6 nM.
Take `CC(C)N(C)c1nc2ccc(-n3ccc(OCCOc4ccc(F)cc4)cc3=O)cc2[nH]1` [Example 90, 4-[2-(4-fluorophenoxy)ethoxy]-1-{2-[isopropyl(methyl)amino]-1H-benzimidazol-6-yl}pyridin-2(1H)-one]: the IC50 turned out to be 9.8 nM. This IC50 and that of the compound before are within 1.5-fold of each other.
`Cn1c(CN2CCCC2)cc2ccc(-n3ccc(OCc4ccc(Cl)cn4)cc3=O)cc21` [Example 70, 4-[(5-Chloropyridin-2-yl)methoxy]-1-[1-methyl-2-(pyrrolidin-1-ylmethyl)-1H-indol-6-yl]pyridin-2(1H)-one]: the IC50 worked out at 11 nM.
In the case of `Cc1c(CCCN2CCCC2)nc2ccc(-n3ccc(OCc4ccc(Cl)cn4)cc3=O)cn12` [Example 63, 4-[(5-Chloropyridin-2-yl)methoxy]-1-[3-methyl-2-(3-pyrrolidin-1-ylpropyl)imidazo[1,2-a]pyridin-6-yl]pyridin-2(1H)-one] it was 22 nM; in that of `O=c1cc(OCc2ccccc2)ccn1-c1ccc2cn(CCN3CCCC3)nc2c1` [Example 27, 4-(Benzyloxy)-1-[2-(2-pyrrolidin-1-ylethyl)-2H-indazol-6-yl]pyridin-2(1H)-one], 80 nM.
Take `O=c1cc(OCc2ccc(F)cc2)ccn1-c1ccc2nc(CN3CCC3)ccc2n1` [Example 95, 1-[6-(Azetidin-1-ylmethyl)-1,5-naphthyridin-2-yl]-4-[(4-fluorobenzyl)oxy]pyridin-2(1H)-one]: the IC50 worked out at 23 nM.
`O=c1cc(OCc2ccc(Cl)cn2)ccn1-c1ccc2nc(OCCCN3CCCC3)ccc2c1` [Example 20, 4-[(5-Chloropyridin-2-yl)methoxy]-1-[2-(3-pyrrolidin-1-ylpropoxy)quinolin-6-yl]pyridin-2(1H)-one] registered an IC50 of 7.8 nM.
With `O=c1cc(OCc2ccc(F)cc2)ccn1OCc1ccc2nc(CN3CCCC3)ccc2c1` [Example 94, 4-[(4-Fluorobenzyl)oxy]-1-{[2-(pyrrolidin-1-ylmethyl)quinolin-6-yl]methoxy}pyridin-2(1H)-one], the IC50 came to 10.5 nM.
On to `O=c1cc(OCc2ccccc2)ccn1-c1ccc2cc(OCCN3CCCC3)ccc2c1` [Example 38, 4-(Benzyloxy)-1-[6-(2-pyrrolidin-1-ylethoxy)-2-naphthyl]pyridin-2(1H)-one], for which the IC50 was determined as 3.1 nM.
